Measurements from patent US7727950B2, “Methods and reagents for assaying protein kinase activity” (The University of Dundee, priority 2002, dated 2010).
Blank lines part the entries; values can stand above or below the substance they belong to. Square brackets hold non-standard residues; d marks the D form. Ends that are not written are not given here. pS = N[C@@H](COP(=O)(O)O)C(=O)O

Columns and labels:
[1] = tested on: peptide LpSFAEPGC conjugated to bovine serum albumin; assay: Immunoblot of phospho-specific antibody with peptide competition (FIG. 1); assay type: binding; conditions: competition studies
Method: Aliquots (10 ng or 100 ng) of the peptide LpSFAEPGC (SEQ ID NO: 17) conjugated to bovine serum albumin were spotted on to a nitrocellulose membrane and immunoblotted with the phospho-specific antibody raised against the phospho-peptide immunogen in the presence or absence of the peptides shown on the right. The prefix “p” before S denotes the serine-phosphorylated form of the peptide.
Antibodies that recognise the common seven residue phosphorylated motif (LpSFAEPG) (SEQ ID NO:7) contained within each of the three generic peptide substrates described under results, were raised against the peptide LpSFAEPGC (SEQ ID NO:17) (where pS represents phosphoserine). The C-terminal cysteine residue was added to enable coupling to keyhole limpet haemocyanin. The peptide-protein conjugate was injected into sheep at Diagnostic Scotland (Carluke, U.K.) and the anti-sera purified on protein G-Sepharose (Amersham Pharmacia Biotech) by Dr J. Leitch in this Unit. Antibodies were used at a concentration of 2 μg/ml for immunoblotting and 10-20 μg/ml for detection of phosphorylated peptides in the modified ELISA format. Rabbit anti-sheep antibodies conjugated to peroxidase were obtained from Pierce (Tattenhall, Cheshire, UK) and used at 1/10,000 dilution. […]

[2] = target: T1, CHK1 (Homo sapiens, UniProt O14757); assay: Kinetic parameters for peptide phosphorylation, radioactive filter-binding assay; assay type: biochemical; conditions: Standard Substrate = KKKVSRSGLYRSPSMPENLNRPR
T1 construct: made in house; host or cells: Sf21 insect cells
T1 sequence (O14757 1-476): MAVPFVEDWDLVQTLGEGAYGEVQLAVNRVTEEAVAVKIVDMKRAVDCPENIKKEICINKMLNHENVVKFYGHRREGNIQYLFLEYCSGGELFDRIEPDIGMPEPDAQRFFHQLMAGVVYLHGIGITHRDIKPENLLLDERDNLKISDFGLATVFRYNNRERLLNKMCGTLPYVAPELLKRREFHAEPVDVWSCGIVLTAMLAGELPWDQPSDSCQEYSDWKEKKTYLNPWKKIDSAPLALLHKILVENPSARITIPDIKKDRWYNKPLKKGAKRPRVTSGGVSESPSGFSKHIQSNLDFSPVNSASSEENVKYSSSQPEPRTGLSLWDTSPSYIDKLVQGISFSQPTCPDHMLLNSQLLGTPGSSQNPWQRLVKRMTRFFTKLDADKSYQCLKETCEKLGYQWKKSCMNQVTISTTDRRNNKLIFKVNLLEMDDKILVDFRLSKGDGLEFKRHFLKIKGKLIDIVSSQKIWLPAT
Text: (§1) Apart from the AMP-activated protein kinase (AMPK, a gift from Drs S. Hawley and D. G. Hardie), cGMP-dependent protein kinase (PKG, a generous gift from Drs Susan Lohmann and Ulrich Walter, University of Wurzburg, Germany) and the catalytic subunit of cyclic AMP-dependent protein kinase (PKA, a gift from Dr C. Smythe), which were isolated from rat liver, bovine lung and bovine heart, respectively, all other protein kinases were expressed as either GST-fusion or His-tagged proteins (by a person, a person, Dr A. Paterson or a person, in this Division). The expressed proteins all corresponded to the human sequences apart from the rat Rho-dependent protein kinase (ROCK-II) and rat mitogen-activated protein kinase (MAPK) activated kinase-1a (MAPKAP-K1a, also called RSK). GST-fusion proteins were purified on GSH-agarose (Amersham Pharmacia Biotech, Amersham, UK) and His-tagged proteins on Ni-NTA agarose (Qiagen) essentially according to the manufacturer's instructions. All the protein kinases used in this study are available from Upstate Biotechnology Inc. (Lake Placid, N.Y., USA), apart from the α-isoform of calmodulin-dependent protein kinase II (CaMKII), MAPKAP-K3 and PKG. […]
(§2) All protein kinase assays were linear with respect to time. […] All papers were subsequently washed a further three times in phosphoric acid, once in acetone, then dried and counted for radioactivity. […] The plates were then washed six times (five min per wash) in PBS, 0.1% Tween 20 and binding of the phospho-specific antibody detected by incubating the plates with peroxidase-conjugated anti-sheep antibodies (Pierce). […] Signals were quantitated on LAS-1000IR software (FujiFilm). […]

[3] = target: T2, CHK2 (Homo sapiens, UniProt O96017); assay: as above; assay type: biochemical; conditions: Standard Substrate = KKKVSRSGLYRSPSMPENLNRPR
T2 construct: an additional His-tag at the extreme C-terminus, to aid purification of the full-length product; GST; His-tag (C); made in house; host or cells: E. coli
T2 sequence (O96017 whole entry): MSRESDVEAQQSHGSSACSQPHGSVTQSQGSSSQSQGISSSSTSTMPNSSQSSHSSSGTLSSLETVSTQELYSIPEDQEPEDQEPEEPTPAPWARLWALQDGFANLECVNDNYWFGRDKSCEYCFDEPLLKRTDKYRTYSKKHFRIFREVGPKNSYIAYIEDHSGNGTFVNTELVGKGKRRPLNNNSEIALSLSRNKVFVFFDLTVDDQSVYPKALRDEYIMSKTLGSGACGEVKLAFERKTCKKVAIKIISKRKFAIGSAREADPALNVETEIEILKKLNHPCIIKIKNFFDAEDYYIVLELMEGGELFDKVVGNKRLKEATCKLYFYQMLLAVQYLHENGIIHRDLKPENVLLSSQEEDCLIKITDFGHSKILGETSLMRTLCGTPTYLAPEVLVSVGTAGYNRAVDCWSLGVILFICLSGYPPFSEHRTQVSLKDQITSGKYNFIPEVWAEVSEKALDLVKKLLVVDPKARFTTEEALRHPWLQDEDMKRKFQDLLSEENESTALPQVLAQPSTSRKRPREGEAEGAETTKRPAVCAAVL
Text: as §1, with “RSK).” for “RSK). GST-fusion proteins were purified on GSH-agarose (Amersham Pharmacia Biotech, Amersham, UK) and His-tagged proteins on Ni-NTA agarose (Qiagen) essentially according to the manufacturer's instructions. All the protein kinases used in this study are available from Upstate Biotechnology Inc. (Lake Placid, N.Y., USA), apart from the α-isoform of calmodulin-dependent protein kinase II (CaMKII), MAPKAP-K3 and PKG.”
as §2

[4] = target: T3, PKCα (Homo sapiens, UniProt P17252); assay: as above; assay type: biochemical; conditions: Standard Substrate = histone H1
T3 construct: purchased Calbiochem Novachem Corp; host or cells: Sf21 insect cells
Text: as §1, §2

[5] = target: T4, ROCKII (Rattus norvegicus, UniProt Q62868); assay: as above; assay type: biochemical; conditions: Standard Substrate = KEAKEKRQEQIAKRRRLSSLRASTSKSGGSQK
T4 construct: rat ROCKII[1-543]; made in house; host or cells: Sf21 insect cells
T4 sequence (Q62868 1-543): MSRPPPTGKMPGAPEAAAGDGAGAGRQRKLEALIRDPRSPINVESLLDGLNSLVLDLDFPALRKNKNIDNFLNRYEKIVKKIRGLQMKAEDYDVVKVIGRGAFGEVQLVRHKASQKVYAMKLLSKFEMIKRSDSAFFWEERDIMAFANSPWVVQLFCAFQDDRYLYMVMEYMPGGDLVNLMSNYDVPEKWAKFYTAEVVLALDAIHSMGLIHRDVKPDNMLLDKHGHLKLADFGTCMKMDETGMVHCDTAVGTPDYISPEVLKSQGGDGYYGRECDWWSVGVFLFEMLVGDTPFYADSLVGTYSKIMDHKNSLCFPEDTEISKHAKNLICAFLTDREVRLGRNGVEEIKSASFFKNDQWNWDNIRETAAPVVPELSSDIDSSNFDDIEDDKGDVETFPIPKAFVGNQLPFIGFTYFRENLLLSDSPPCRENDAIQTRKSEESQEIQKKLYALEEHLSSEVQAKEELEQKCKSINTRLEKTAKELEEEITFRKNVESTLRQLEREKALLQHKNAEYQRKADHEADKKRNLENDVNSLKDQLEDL
Text: as §1, §2

Substance: LpSFAEPG (L[pS]FAEPG) [seven residue phospho-peptide antigen, pS is phosphoserine]
- neutralisation of the phosphopeptide antibody by pre-incubation with peptide [1]: neutralised

- Km [2]: 5 µM
- Km [3]: > 300 µM
Substance: RARTLSFAEPG

- Km [4]: > 500 µM
- Km [5]: > 100 µM
Substance: RRRLSFAEPG
